O=c1c(-c2ccc(O)cc2)coc2cc(O)cc(O)c12
solubility (mole fraction)
Details | 288.2 K | 293.2 K | 298.2 K | 303.2 K | 308.2 K | 313.2 K | 318.2 K | 323.2 K | 328.2 K
in acetone | 0.00477 | 0.00526 | 0.00607 | 0.007 | 0.00754 | 0.00805 | 0.00856 | 0.00879 | 0.0089
in chloroform | 2.41e-06 | 2.82e-06 | 3.22e-06 | 3.6e-06 | 3.99e-06 | 4.36e-06 | 4.51e-06 | 4.7e-06 | 4.74e-06
in ethyl acetate | 0.00183 | 0.0022 | 0.00241 | 0.00273 | 0.00335 | 0.00367 | 0.00413 | 0.00471 | 0.00539
in methanol | 0.000935 | 0.00127 | 0.00145 | 0.00163 | 0.00192 | 0.00212 | 0.00266 | 0.00323 | 0.00372
in n-hexane | 6.96e-06 | 8.12e-06 | 9e-06 | 1.01e-05 | 1.09e-05 | 1.14e-05 | 1.24e-05 | 1.3e-05 | 1.41e-05
in water | 4.72e-08 | 6.95e-08 | 8.46e-08 | 1.05e-07 | 1.25e-07 | 1.67e-07 | 1.99e-07 | 2.7e-07 | 3.68e-07

From BigSolDB 2.1
